{"source": "patent US8952024B2", "about": "“Herbicidal pyrimidone derivatives” (E I du Pont de Nemours and Company, priority 2009, dated 2015)", "test_in_all_cases": "Test B pre-/postemergence plant response", "format_in_all_cases": "in vivo", "key": {"[1]": {"test_system": "downy bromegrass (Bromus tectorum)", "in_short": "(§1)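 Steps: sow seed in loam–sand soil and spray preemergence, or grow plants in peat-based medium to 1–4 leaves (2–18 cm) and spray postemergence; formulation is non-phytotoxic solvent plus surfactant; hold in greenhouse 13–15 days; score visually vs controls, 0 = no effect, 100 = complete control.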"}, "[2]": {"test_system": "morningglory (Ipomoea coccinea)", "in_short": "as §1"}, "[3]": {"test_system": "Surinam grass (Brachiaria decumbens)", "in_short": "as §1"}, "[4]": {"test_system": "bermudagrass (Cynodon dactylon)", "in_short": "as §1"}, "[5]": {"test_system": "woolly cupgrass (Eriochloa villosa)", "in_short": "as §1"}, "[6]": {"test_system": "ragweed (common ragweed, Ambrosia elatior)", "in_short": "as §1"}, "[7]": {"test_system": "large crabgrass (Digitaria sanguinalis)", "in_short": "as §1"}, "[8]": {"test_system": "wheat (Triticum aestivum)", "in_short": "as §1"}, "[9]": {"test_system": "kochia (Kochia scoparia)", "in_short": "as §1"}, "[10]": {"test_system": "wild oat (Avena fatua)", "in_short": "as §1"}, "[11]": {"test_system": "cocklebur (Xanthium strumarium)", "in_short": "as §1"}, "[12]": {"test_system": "Italian ryegrass (Lolium multiflorum)", "in_short": "as §1"}, "[13]": {"test_system": "blackgrass (Alopecurus myosuroides)", "in_short": "as §1"}, "[14]": {"conditions": "31 g ai/ha, postemergence, scale 0 to 100, 0 is no effect, 100 is complete control"}, "[15]": {"conditions": "250 g ai/ha, Preemergence, 0 to 100 scale"}, "[16]": {"conditions": "Postemergence, 62 g ai/ha, scale 0 (no effect) to 100 (complete control), 13 to 15 days"}, "[17]": {"conditions": "Postemergence, 125 g ai/ha, visual rating after 13 to 15 days, scale 0 (no effect) to 100 (complete control)"}, "[18]": {"conditions": "Postemergence, 250 g ai/ha, scale 0 to 100 (0 no effect, 100 complete control)"}, "[19]": {"conditions": "Preemergence, 31 g ai/ha, scale 0 to 100 (0 no effect, 100 complete control)"}, "[20]": {"conditions": "Preemergence, 62 g ai/ha, scale 0 to 100 (0 no effect, 100 complete control)"}, "[21]": {"conditions": "Preemergence, 125 g ai/ha, scale 0 to 100, 0 no effect, 100 complete control"}}, "data": [{"compound": "CCCCc1ncc(C(=O)C2=C(O)CCCC2=O)c(=O)n1-c1cccc(C)c1", "note": "[Compound 63]", "values": [{"measurement": "Plant response rating, Bromegrass, Downy", "setting": "[1]; [14]", "value": 10}, {"measurement": "Plant response rating, Bromegrass, Downy", "setting": "[1]; [15]", "value": 0}, {"measurement": "Plant response rating, Bromegrass, Downy", "setting": "[1]; [16]", "value": 20}, {"measurement": "Plant response rating, Bromegrass, Downy", "setting": "[1]; [17]", "value": 20}, {"measurement": "Plant response rating, Bromegrass, Downy", "setting": "[1]; [18]", "value": 40}, {"measurement": "Plant response rating, Bromegrass, Downy", "setting": "[1]; [19]", "value": 0}, {"measurement": "Plant response rating, Bromegrass, Downy", "setting": "[1]; [20]", "value": 0}, {"measurement": "Plant response rating, Bromegrass, Downy", "setting": "[1]; [21]", "value": 0}, {"measurement": "Plant response rating, Morningglory", "setting": "[2]; [16]", "value": 70}, {"measurement": "Plant response rating, Morningglory", "setting": "[2]; [17]", "value": 75}, {"measurement": "Plant response rating, Morningglory", "setting": "[2]; [18]", "value": 75}, {"measurement": "Plant response rating, Morningglory", "setting": "[2]; [19]", "value": 0}, {"measurement": "Plant response rating, Morningglory", "setting": "[2]; [20]", "value": 0}, {"measurement": "Plant response rating, Morningglory", "setting": "[2]; [21]", "value": 0}, {"measurement": "Plant response rating, Surinam Grass", "setting": "[3]; [14]", "value": 10}, {"measurement": "Plant response rating, Surinam Grass", "setting": "[3]; [16]", "value": 25}, {"measurement": "Plant response rating, Surinam Grass", "setting": "[3]; [17]", "value": 35}, {"measurement": "Plant response rating, Surinam Grass", "setting": "[3]; [18]", "value": 75}, {"measurement": "Plant response rating, Surinam Grass", "setting": "[3]; [19]", "value": 0}, {"measurement": "Plant response rating, Surinam Grass", "setting": "[3]; [20]", "value": 0}, {"measurement": "Plant response rating, Surinam Grass", "setting": "[3]; [21]", "value": 55}, {"measurement": "Plant response rating, Bermudagrass", "setting": "[4]; [15]", "value": 98}, {"measurement": "Plant response rating, Bermudagrass", "setting": "[4]; [16]", "value": 85}, {"measurement": "Plant response rating, Bermudagrass", "setting": "[4]; [17]", "value": 85}, {"measurement": "Plant response rating, Bermudagrass", "setting": "[4]; [18]", "value": 95}, {"measurement": "Plant response rating, Bermudagrass", "setting": "[4]; [19]", "value": 75}, {"measurement": "Plant response rating, Bermudagrass", "setting": "[4]; [20]", "value": 98}, {"measurement": "Plant response rating, Bermudagrass", "setting": "[4]; [21]", "value": 98}, {"measurement": "Plant response rating, Cupgrass, Woolly", "setting": "[5]; [14]", "value": 50}, {"measurement": "Plant response rating, Cupgrass, Woolly", "setting": "[5]; [15]", "value": 10}, {"measurement": "Plant response rating, Cupgrass, Woolly", "setting": "[5]; [16]", "value": 60}, {"measurement": "Plant response rating, Cupgrass, Woolly", "setting": "[5]; [17]", "value": 65}, {"measurement": "Plant response rating, Cupgrass, Woolly", "setting": "[5]; [18]", "value": 65}, {"measurement": "Plant response rating, Cupgrass, Woolly", "setting": "[5]; [19]", "value": 0}, {"measurement": "Plant response rating, Cupgrass, Woolly", "setting": "[5]; [20]", "value": 0}, {"measurement": "Plant response rating, Cupgrass, Woolly", "setting": "[5]; [21]", "value": 0}, {"measurement": "Plant response rating, Ragweed", "setting": "[6]; [14]", "value": 70}, {"measurement": "Plant response rating, Ragweed", "setting": "[6]; [16]", "value": 75}, {"measurement": "Plant response rating, Ragweed", "setting": "[6]; [17]", "value": 80}, {"measurement": "Plant response rating, Ragweed", "setting": "[6]; [18]", "value": 80}, {"measurement": "Plant response rating, Ragweed", "setting": "[6]; [19]", "value": 65}, {"measurement": "Plant response rating, Ragweed", "setting": "[6]; [20]", "value": 65}, {"measurement": "Plant response rating, Ragweed", "setting": "[6]; [21]", "value": 70}, {"measurement": "Plant response rating, Crabgrass, Large", "setting": "[7]; [14]", "value": 70}, {"measurement": "Plant response rating, Crabgrass, Large", "setting": "[7]; [15]", "value": 100}, {"measurement": "Plant response rating, Crabgrass, Large", "setting": "[7]; [16]", "value": 75}, {"measurement": "Plant response rating, Crabgrass, Large", "setting": "[7]; [17]", "value": 80}, {"measurement": "Plant response rating, Crabgrass, Large", "setting": "[7]; [18]", "value": 90}, {"measurement": "Plant response rating, Crabgrass, Large", "setting": "[7]; [19]", "value": 50}, {"measurement": "Plant response rating, Crabgrass, Large", "setting": "[7]; [20]", "value": 85}, {"measurement": "Plant response rating, Crabgrass, Large", "setting": "[7]; [21]", "value": 100}, {"measurement": "Plant response rating, Wheat", "setting": "[8]; [14]", "value": 0}, {"measurement": "Plant response rating, Wheat", "setting": "[8]; [16]", "value": 0}, {"measurement": "Plant response rating, Wheat", "setting": "[8]; [17]", "value": 0}, {"measurement": "Plant response rating, Wheat", "setting": "[8]; [18]", "value": 10}, {"measurement": "Plant response rating, Wheat", "setting": "[8]; [19]", "value": 0}, {"measurement": "Plant response rating, Wheat", "setting": "[8]; [20]", "value": 0}, {"measurement": "Plant response rating, Wheat", "setting": "[8]; [21]", "value": 0}, {"measurement": "Plant response rating, Kochia", "setting": "[9]; [14]", "value": 10}, {"measurement": "Plant response rating, Kochia", "setting": "[9]; [15]", "value": 100}, {"measurement": "Plant response rating, Kochia", "setting": "[9]; [16]", "value": 25}, {"measurement": "Plant response rating, Kochia", "setting": "[9]; [17]", "value": 25}, {"measurement": "Plant response rating, Kochia", "setting": "[9]; [18]", "value": 65}, {"measurement": "Plant response rating, Kochia", "setting": "[9]; [19]", "value": 0}, {"measurement": "Plant response rating, Kochia", "setting": "[9]; [20]", "value": 100}, {"measurement": "Plant response rating, Kochia", "setting": "[9]; [21]", "value": 100}, {"measurement": "Plant response rating, Oat, Wild", "setting": "[10]; [14]", "value": 0}, {"measurement": "Plant response rating, Oat, Wild", "setting": "[10]; [16]", "value": 0}, {"measurement": "Plant response rating, Oat, Wild", "setting": "[10]; [17]", "value": 5}, {"measurement": "Plant response rating, Oat, Wild", "setting": "[10]; [18]", "value": 20}, {"measurement": "Plant response rating, Oat, Wild", "setting": "[10]; [19]", "value": 0}, {"measurement": "Plant response rating, Oat, Wild", "setting": "[10]; [20]", "value": 0}, {"measurement": "Plant response rating, Oat, Wild", "setting": "[10]; [21]", "value": 0}, {"measurement": "Plant response rating, Cocklebur", "setting": "[11]; [14]", "value": 65}, {"measurement": "Plant response rating, Cocklebur", "setting": "[11]; [15]", "value": 10}, {"measurement": "Plant response rating, Cocklebur", "setting": "[11]; [16]", "value": 80}, {"measurement": "Plant response rating, Cocklebur", "setting": "[11]; [17]", "value": 90}, {"measurement": "Plant response rating, Cocklebur", "setting": "[11]; [18]", "value": 95}, {"measurement": "Plant response rating, Cocklebur", "setting": "[11]; [19]", "value": 0}, {"measurement": "Plant response rating, Cocklebur", "setting": "[11]; [20]", "value": 0}, {"measurement": "Plant response rating, Cocklebur", "setting": "[11]; [21]", "value": 0}, {"measurement": "Plant response rating, Ryegrass, Italian", "setting": "[12]; [14]", "value": 0}, {"measurement": "Plant response rating, Ryegrass, Italian", "setting": "[12]; [16]", "value": 0}, {"measurement": "Plant response rating, Ryegrass, Italian", "setting": "[12]; [17]", "value": 0}, {"measurement": "Plant response rating, Ryegrass, Italian", "setting": "[12]; [18]", "value": 10}, {"measurement": "Plant response rating, Ryegrass, Italian", "setting": "[12]; [19]", "value": 0}, {"measurement": "Plant response rating, Ryegrass, Italian", "setting": "[12]; [20]", "value": 0}, {"measurement": "Plant response rating, Ryegrass, Italian", "setting": "[12]; [21]", "value": 0}, {"measurement": "Plant response rating, Blackgrass", "setting": "[13]; [14]", "value": 30}, {"measurement": "Plant response rating, Blackgrass", "setting": "[13]; [15]", "value": 40}, {"measurement": "Plant response rating, Blackgrass", "setting": "[13]; [16]", "value": 35}, {"measurement": "Plant response rating, Blackgrass", "setting": "[13]; [17]", "value": 35}, {"measurement": "Plant response rating, Blackgrass", "setting": "[13]; [18]", "value": 50}, {"measurement": "Plant response rating, Blackgrass", "setting": "[13]; [19]", "value": 0}, {"measurement": "Plant response rating, Blackgrass", "setting": "[13]; [20]", "value": 0}, {"measurement": "Plant response rating, Blackgrass", "setting": "[13]; [21]", "value": 5}]}]}
